Results: patent US20020037931A1, “Substituted nitrated catechols, their use in the treatment of some central and peripheral nervous system disorders and pharmaceutical compositions containing them” (priority 2000, published 2002)

Legend:
COMT [1] = assay: Ex vivo brain COMT activity after administration by gastric tube; type: in vivo, rat; conditions: for COMT activity (% of control), Brain: rat brain homogenate; for inhibitory profile brain COMT versus liver COMT (in words): brain compared with liver; for access to the brain / activity in the periphery (in words): conclusion from ex vivo COMT inhibition
COMT [2] = target: T1, COMT (Homo sapiens, UniProt P21964); assay: COMT activity in intact SK-N-SH cell monolayers; type: cell-based; conditions: SK-N-SH cells; test compound 100 nM; means±SEM, n=4-8
T1 construct: COMT activity was evaluated in cell monolayers by the ability to methylate adrenaline; host or cells: SK-N-SH cells
T1 sequence (P21964 1-271): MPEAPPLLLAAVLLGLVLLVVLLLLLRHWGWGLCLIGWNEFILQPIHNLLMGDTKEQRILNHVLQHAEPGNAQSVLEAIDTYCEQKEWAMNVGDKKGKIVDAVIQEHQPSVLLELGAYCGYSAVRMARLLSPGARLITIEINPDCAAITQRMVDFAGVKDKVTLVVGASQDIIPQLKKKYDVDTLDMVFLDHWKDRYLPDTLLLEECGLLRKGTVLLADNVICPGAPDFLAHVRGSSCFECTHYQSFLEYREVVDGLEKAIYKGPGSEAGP

COMT [3] = assay: COMT activity (methylation of adrenaline to metanephrine) in rat brain homogenates; type: biochemical; conditions: rat brain homogenate; test compound 100 nM; means±SEM, n=4-8
COMT [4] = assay: COMT activity (methylation of adrenaline to metanephrine) in rat liver homogenates; type: biochemical; conditions: rat liver homogenate; test compound 3 μM; means±SEM, n=4-8
COMT [5] = assay: Ex vivo liver COMT activity after administration by gastric tube; type: in vivo; conditions: rat liver homogenate
[6] = 0.5 h after administration by gastric tube
[7] = 1 h after administration by gastric tube
[8] = 3 h after administration by gastric tube
[9] = 6 h after administration by gastric tube
[10] = 9 h after administration by gastric tube

In the case of `O=C(c1ccccc1)c1ccc(O)c(O)c1[N+](=O)[O-]` [Compound 5, (3,4-Dihydroxy-2-nitro-phenyl)-phenyl-methanone], the “COMT activity (% of control), Brain” value (COMT [1]; [6]) was 12.2 ± 0.3 % of control, the “COMT activity (% of control), Brain” value (COMT [1]; [7]) was 25.5 ± 1.8 % of control and the “COMT activity (% of control), Brain” value (COMT [1]; [8]) was 52.2 ± 2.3 % of control. The “COMT activity (% of control), Brain” value (COMT [1]; [9]) was 92.5 ± 7.9 % of control, the “COMT activity (% of control), Brain” value (COMT [1]; [10]) was 102.3 % of control and the “inhibitory profile brain COMT versus liver COMT (in words)” value (COMT [1]; after oral administration, rat) was “much more potent as a peripheral COMT inhibitor than in brain”. For the same compound, the “access to the brain / activity in the periphery (in words)” value (COMT [1]; rat) was “limited access to the brain”, the “COMT activity, SK-N-SH (% of control)” value (COMT [2]) was 2 ± 0 % of control and the “COMT activity, Brain (% of control)” value (COMT [3]) was 6 ± 1 % of control. The “COMT activity, Liver (% of control)” value (COMT [4]) was 0.3 ± 0.1 % of control, the “COMT activity (% of control), Liver” value (COMT [5]; [6]) was 2.1 ± 0.5 % of control and the “COMT activity (% of control), Liver” value (COMT [5]; [7]) was 26.5 ± 1.3 % of control. The “COMT activity (% of control), Liver” value (COMT [5]; [8]) was 52.1 ± 2.6 % of control, the “COMT activity (% of control), Liver” value (COMT [5]; [9]) was 79.0 ± 14.8 % of control and the “COMT activity (% of control), Liver” value (COMT [5]; [10]) was 108.9 % of control.
With `CCCC(=O)Oc1ccc(C(=O)c2ccccc2)c([N+](=O)[O-])c1OC(=O)CCC` [Compound 20, Butyric Acid, 3-Benzoyl-6-butyryloxy-2-nitro-phenyl Ester] the “COMT activity (% of control), Brain” value (COMT [1]; [6]) was 25.8 ± 4.3 % of control, the “COMT activity (% of control), Brain” value (COMT [1]; [7]) was 31.4 ± 3.0 % of control and the “COMT activity (% of control), Brain” value (COMT [1]; [8]) was 49.4 ± 5.3 % of control. For the same compound, the “COMT activity (% of control), Brain” value (COMT [1]; [9]) was 81.3 ± 3.7 % of control, the “COMT activity (% of control), Brain” value (COMT [1]; [10]) was 72.8 % of control and the “inhibition of brain COMT (in words)” value (COMT [1]; after oral administration, rat) was “potent inhibitors of brain COMT”. For the same compound, the “inhibitory profile brain COMT versus liver COMT (in words)” value (COMT [1]; after oral administration, rat) was “much more potent upon brain COMT than liver COMT”, the “access to the brain / activity in the periphery (in words)” value (COMT [1]; rat) was “enhanced access to the brain and limited activity in the periphery” and the “COMT activity, SK-N-SH (% of control)” value (COMT [2]) was 0 ± 0 % of control. For the same compound, the “COMT activity, Brain (% of control)” value (COMT [3]) was 3 ± 0 % of control, the “COMT activity, Liver (% of control)” value (COMT [4]) was 0.6 ± 0.0 % of control and the “COMT activity (% of control), Liver” value (COMT [5]; [6]) was 57.9 ± 4.7 % of control. For the same compound, the “COMT activity (% of control), Liver” value (COMT [5]; [7]) was 64.4 ± 5.0 % of control, the “COMT activity (% of control), Liver” value (COMT [5]; [8]) was 66.5 ± 7.8 % of control and the “COMT activity (% of control), Liver” value (COMT [5]; [9]) was 94.5 ± 0.3 % of control. For the same compound, the “COMT activity (% of control), Liver” value (COMT [5]; [10]) was 110.1 % of control.
